Assay results reported in article PMC9295122, “Sialic Acid Derivatives Inhibit SiaT Transporters and Delay Bacterial Growth” (ACS Chemical Biology, 2022).
Read-outs that look alike come from different tables or passages of the source.

How the values were obtained:
PmSiaT = biological target: T1, PmSiaT (Proteus mirabilis, UniProt B4EZY7); experiment: nanoDSF thermal shift assay, PmSiaT; format: binding; conditions: for Average 2 / Average 3 / Replicate 1 / Replicate 2 / Replicate 3 / Average 1: PmSiaT Tm; for Average 2: average of experiment 2; for Average 3: average of experiment 3; for Replicate 1: experiment 1, second capillary; for Replicate 2: experiment 2, second capillary; for Replicate 3: experiment 3, second capillary; for Tm 1: experiment 1, first capillary; for Tm2: experiment 2, first capillary; for Tm 3: experiment 3, first capillary; for ΔTm at 1250 µM: read-out: ΔTm average overall; for Average 1: average of experiment 1
T1 construct: made in house
T1 sequence (B4EZY7 1-496): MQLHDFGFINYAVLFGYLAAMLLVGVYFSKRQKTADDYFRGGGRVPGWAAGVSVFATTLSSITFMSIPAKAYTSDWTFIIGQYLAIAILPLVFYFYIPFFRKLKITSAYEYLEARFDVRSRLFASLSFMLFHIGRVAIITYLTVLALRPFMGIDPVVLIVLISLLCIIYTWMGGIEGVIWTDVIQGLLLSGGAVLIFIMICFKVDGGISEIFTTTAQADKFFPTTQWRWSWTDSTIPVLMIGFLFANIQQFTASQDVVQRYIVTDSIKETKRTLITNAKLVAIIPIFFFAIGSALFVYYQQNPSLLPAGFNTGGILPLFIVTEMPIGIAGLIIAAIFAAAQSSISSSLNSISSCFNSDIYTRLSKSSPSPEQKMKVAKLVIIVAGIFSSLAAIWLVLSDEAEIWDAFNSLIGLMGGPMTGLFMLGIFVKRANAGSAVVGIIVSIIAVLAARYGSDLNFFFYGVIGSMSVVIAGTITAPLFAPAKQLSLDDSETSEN
Protocol: (§1) Nano-differential scanning fluorimetry (nanoDSF) is a high-throughput method that relies on the thermal stabilization of the folded protein state by a bound ligand.[33]
(§2) The melting points of protein–inhibitor complexes were measured on a Prometheus NT.48 instrument from NanoTemper Technologies. Solutions containing the protein at 2 μM in phosphate buffered saline with 0.0174% (w/v) dodecylmaltoside (DDM) and the ligand at 1.25 mM were loaded onto standard capillaries by NanoTemper. The temperature was increased from 25 to 95 °C at a ramp rate of 1 °C/min. The fluorescence was recorded at 330 and 350 nm and as a ratio of the two wavelengths.
(§3) The intensity ratio and its first derivative were calculated using manufacturer’s software (PR.ThermControl, version 2.1.2).
(§4) The melting temperatures have been measured in 3 separate experiments. In each experiment, two capillaries were included per compound, having therefore 2 technical replicates per experiment. In the table all data is presented. Tm1 and Replicate 1 represent the two replicates of the first experiment. Average 1 is the average between Tm 1 and Replicate 1. ΔTm 1 is the thermal shift when compared to the Tm of Neu5Ac. This is calculated from Average 1. The ΔTm presented in the article are the ΔTm average overall, which represent the overall average of the averages from the three experiments. The standard deviation (SD) is calculated from the […]

SaSiaT = SaSiaT (Staphylococcus aureus, UniProt A0A0H2XJ46); experiment: nanoDSF thermal shift assay, SaSiaT; format: binding; conditions: for Average 1 / Average 2 / Average 3 / Replicate 1 / Replicate 2 / Replicate 3: SaSiaT Tm; for Average 1: average of experiment 1; for Average 2: average of experiment 2; for Average 3: average of experiment 3; for Replicate 1: experiment 1, second capillary; for Replicate 1 / Replicate 2 / Replicate 3 / Tm 1 / Tm2 / Tm 3 / Overall average (Tm): 1.25 mM; for Replicate 2: experiment 2, second capillary; for Replicate 3: experiment 3, second capillary; for Tm 1 / Tm2 / Tm 3 / Overall average (Tm): SaSiaT; for Tm 1: experiment 1, first capillary; for Tm2: experiment 2, first capillary; for Tm 3: experiment 3, first capillary; for Overall average (Tm): three experiments
Protocol: as §1, §2, §3, §4

[1] = substrate: CC(=O)N[C@H]1[C@H]([C@H](O)[C@H](O)CO)OC(O)(C(=O)O)C[C@@H]1O; experiment: cells, lysate or membranes named; conditions: other: Neu5Ac transport by SaSiaT in proteoliposomes; pH 7.0; 25.0 °C
Protocol: A kinetic analysis was performed by measuring the concentration-dependent uptake of [^3H]Neu5Ac in the presence of two different concentrations of the inhibitors 3f (Figure 5a,c) or 3e (Figure 5b,d).
(a–d) Data were plotted according to Lineweaver–Burk as a reciprocal transport rate vs reciprocal Neu5Ac concentration. The transport rate was measured, in 5 min, by adding [^3H] Neu5Ac at the indicated concentrations to proteoliposomes containing 20 mM K^+-gluconate in the presence of valinomycin as described in the Supporting Information. [(A,B) P. mirabilis SiaT]; (A) compound 3f 0.25 μM (●) or 0.75 μM (□) was added in comparison to samples without inhibitor (○). […]
For uptake experiments, 600 μL of proteoliposomes were loaded onto a Sephadex G-75 column (0.7 cm diameter × 15 cm height), pre-equilibrated with 20 mM Hepes Tris pH 7.0 with 40 mM sucrose to balance the internal osmolarity. […] For kinetic measurement, the initial transport rate was measured by stopping the reaction after 5 min, that is, within the initial linear range of [^3H]-Neu5Ac uptake into the proteoliposomes previously described. […] In both uptake and efflux experiments, the transport assay was terminated by loading each proteoliposome sample (100 μL) on a Sephadex G-75 column (0.6 cm diameter × 8 cm height) to remove the external radioactivity. […]

[2] = PmSiaT, experiment 1, vs Neu5Ac, read-out: ΔTm 1
[3] = PmSiaT, experiment 2, vs Neu5Ac, read-out: ΔTm 2
[4] = PmSiaT, experiment 3, vs Neu5Ac, read-out: ΔTm 3
[5] = PmSiaT, three experiments, 1.25 mM
[6] = PmSiaT, three experiments, vs Neu5Ac, 1.25 mM

| Average 2 (PmSiaT) | Average 3 (PmSiaT) | Replicate 1 (PmSiaT; 1.25 mM) | Replicate 2 (PmSiaT; 1.25 mM) | Replicate 3 (PmSiaT; 1.25 mM) | Tm 1 (PmSiaT; PmSiaT, 1.25 mM) | ΔTm (PmSiaT; [2]) | Tm2 (PmSiaT; PmSiaT, 1.25 mM) | Tm 3 (PmSiaT; PmSiaT, 1.25 mM) | Tm average overall (PmSiaT; [5]) | Average 1 (SaSiaT) | Average 2 (SaSiaT) | Average 3 (SaSiaT) | Replicate 1 (SaSiaT) | Replicate 2 (SaSiaT) | Replicate 3 (SaSiaT) | Tm 1 (SaSiaT) | Tm2 (SaSiaT) | Tm 3 (SaSiaT) | Overall average (Tm) (SaSiaT) | Molecule | also measured |
| --- | --- | --- | --- | --- | --- | --- | --- | --- | --- | --- | --- | --- | --- | --- | --- | --- | --- | --- | --- | --- | --- |
| 47.1 °C | 47.0 °C | 47.1 °C | 47.0 °C | 47.0 °C | 47.1 °C | -1.9 °C | 47.2 °C | 47.0 °C | 47.1 °C | 45.1 °C | 44.6 °C | 45.2 °C | 45.0 °C | 44.6 °C | 45.1 °C | 45.1 °C | 44.6 °C | 45.3 °C | 45.0 °C | CC(C)C(=O)NC1C(O)CC(O)(C(=O)O)OC1C(O)C(O)CO (stereo not shown) [Compound 6b] | ΔTm (PmSiaT; [3]): -2.1 °C; ΔTm (PmSiaT; [4]): -2.3 °C; ΔTm at 1250 µM (PmSiaT; [6]): -2.1 °C |
| 53.7 °C | 54.1 °C | 55.4 °C | 53.8 °C | 54.1 °C | 55.2 °C | 6.3 °C | 53.6 °C | 54.2 °C | 54.4 °C | 54.4 °C | 53.6 °C | 53.0 °C | 54.3 °C | 53.6 °C | 53.9 °C | 54.4 °C | 53.6 °C | 52.0 °C | 53.7 °C | CC(=O)NC1C(OCc2ccc(C#N)cc2)CC(O)(C(=O)O)OC1C(O)C(O)CO (stereo not shown) [Compound 3d] | Average 1 (PmSiaT): 55.3 °C; ΔTm (PmSiaT; [3]): 4.5 °C; ΔTm (PmSiaT; [4]): 4.8 °C; ΔTm at 1250 µM (PmSiaT; [6]): 5.2 °C |
| – | – | – | – | – | – | – | – | – | – | – | – | – | – | – | – | – | – | – | – | SiaT from S. aureus (Staphylococcus aureus subsp. aureus USA300) (protein) MKEVGFGTLNWVAVIIYLLAMLFIGVYFTKRASQSTNSFFTASGRLPSWVVGFSIYATTLSAITFMSTPEKAFLTDWSYIAGNIAIVAIIPLLIYFYVPFFKKLKVTSAYEYLEARFGPSIRVIGSLLFVVYHLGRVAIVIYLPTLAITSVSDMNPYIVASLVGLLCILYTFLGGFEGVVWSDFIQGVILLGGALVIIILGVVNIKGGFGTVFADAIEHKKLISADNWKLNTAAAAIPIIFLGNIFNNLYQYTASQDVVQRYQASDSLKETNKSLWTNGILALISAPLFYGMGTMLYSFYTHEAVLPKGFNTSSVVPYFILTEMPPFVAGLLIAAIFAAAQSTISSSLNSISACISIDIKQRFFGKGSERHEVNFARFIIIIAGIFGFGMSLYLIASNSNDLWDLFLFVTGLFGVPLAGVFAVGIFTKRTNTFGVICGLILGIIFAYVYNGVGKGNSPFYVSTISFTVAFVFAYILSFIVPSKHKKDITGLTIFEKDKPSTYISKTATKK | Km [1]: 12.2 ± 2.2 µM; Vmax [1]: 51 ± 9 nmol/mg protein/min |

| Molecule | Average 2 (PmSiaT) | Average 3 (PmSiaT) | Replicate 1 (PmSiaT; 1.25 mM) | Replicate 2 (PmSiaT; 1.25 mM) | Replicate 3 (PmSiaT; 1.25 mM) | Tm 1 (PmSiaT; PmSiaT, 1.25 mM) | ΔTm (PmSiaT; [2]) | Tm2 (PmSiaT; PmSiaT, 1.25 mM) | Tm 3 (PmSiaT; PmSiaT, 1.25 mM) | Tm average overall (PmSiaT; [5]) | Average 1 (SaSiaT) | Average 2 (SaSiaT) | Average 3 (SaSiaT) | Replicate 1 (SaSiaT) | Replicate 2 (SaSiaT) | Replicate 3 (SaSiaT) | Tm 1 (SaSiaT) | Tm2 (SaSiaT) | Tm 3 (SaSiaT) | Overall average (Tm) (SaSiaT) | also measured |
| --- | --- | --- | --- | --- | --- | --- | --- | --- | --- | --- | --- | --- | --- | --- | --- | --- | --- | --- | --- | --- | --- |
| O=C(CF)NC1C(O)CC(O)(C(=O)O)OC1C(O)C(O)CO (stereo not shown) [Compound 6f] | 47.6 °C | 47.4 °C | 47.4 °C | 47.6 °C | 47.3 °C | 47.4 °C | – | 47.7 °C | 47.4 °C | 47.5 °C | 52.0 °C | 51.2 °C | 51.9 °C | 52.0 °C | 51.2 °C | 51.8 °C | 52.0 °C | 51.2 °C | 52.1 °C | 51.7 °C | Average 1 (PmSiaT): 47.4 °C; ΔTm at 1250 µM (PmSiaT): -1.7 °C |
